Assay results published in patent publication US20190233899A1, “METHODS FOR SELECTING TREATMENT REGIMENS AND PREDICTING OUTCOMES IN CANCER PATIENTS” (BIOMEDICA DIAGNOSTICS INC., priority 2002, published 2019).

Experiments:
[1] = First study: Cox proportional hazards analysis of disease-free survival in primary breast cancer patients (n = 761, Munich); type: in vivo, human; conditions: primary breast cancer n = 761, median follow-up 48 months; therapy yes vs no
From the text: The first study evaluated the clinical relevance of the combination of uPA and PAI-1 in 761 individual primary breast cancer patients (Table 3). Patients either underwent a modified radical mastectomy (n=389) or breast conserving surgery with subsequent breast irradiation (n=372) at the Department of Obstetrics and Gynecology, Technical University of Munich, Germany, between 1987 and 1998. Informed consent for analysis of tumor biological factors was obtained at primary surgery. Therapy decisions were based solely on consensus recommendations at the time but not on uPA and PAI-1. For 745 patients, information on adjuvant systemic therapy was available (Table 3). Median age of the patients at time of primary surgery was 56 years (range: 28-92 years). […] In addition to the collective as a whole, the subset of node-negative patients without adjuvant systemic therapy (n=269; median follow-up 60 months) was analyzed separately (Table 3). […]
In studies involving patients from Munich, uPA and PAI-1 antigen have been prospectively measured by ELISA (uPA: Imubind #894. PAI-1: Imubind #821; both from American Diagnostica Inc., Greenwich, Conn.) since 1987 in all primary breast cancer patients treated at our institution. […] The antigen levels in detergent extracts of breast cancer tissue are expressed as ng of analyte per mg of tissue protein. […]

[2] = Second study: Cox proportional hazards analysis of disease-free survival stratified by data set, primary breast cancer patients (Munich and Rotterdam, n = 3424); type: in vivo, human; conditions: for Hazard ratio (95% Confidence interval), multivariate Cox model (DFS), main effect: yes (1) vs. no (0)
From the text: The second study involved a total of 3424 primary breast cancer patients from two different data sets. One set was collected from the Department of Obstetrics and Gynecology, Technical University of Munich, Germany, and the other was from the Department of Medical Oncology, Rotterdam Cancer Institute and University Hospital Rotterdam, the Netherlands. Patients had been treated for primary breast cancer between 1987 and 1999. Treatment decisions with regard to primary surgery and adjuvant systemic therapy were based primarily on consensus recommendations at the time. Treatment strategies differed between Munich and Rotterdam, particularly regarding administration of adjuvant systemic therapy to node-positive patients (Table 4b) (Harbeck et al., 2002, J. Clin. Oncology 20:1000-1009; Foekens et al., 2000, Cancer Res. 60:636-643). Of those patients treated by adjuvant chemotherapy, the majority received CMF (Rotterdam: 76%, Munich: 65%); about one-fifth in both collectives received anthracycline-containing regimens (Rotterdam: 24%, Munich: 21%); and the rest of the Munich patients were treated by other chemotherapy regimens. The endocrine treatment used in both collectives was tamoxifen.
Median age of the patients at time of primary surgery was 56 years (range: 22-94 years). Both data sets contained established clinical and histo-morphological factors such as number of involved axillary lymph nodes, pT stage, estrogen receptor status, progesterone receptor status, exposure to adjuvant chemotherapy (CT), adjuvant endocrine therapy (HT), or adjuvant radiotherapy (RT), as well as uPA and PAI-1 measurements. Since the scoring systems for assessment of grade differed substantially between the centers and could thus represent different biological tumor characteristics, grade was not included in the combined stratified analysis. The variables were re-coded as described below in Section 6.1.3. Patients with an uncertain number of affected lymph nodes were included for computing the univariate distributions of ranked variables but not in multivariate survival analysis. Forty-five Rotterdam patients with an uncertain number of affected lymph nodes and three Munich patients with missing information on chemotherapy were not included. At the time of primary therapy, no patient had any clinical or radiological evidence of distant metastases. Follow-up data were obtained at regular intervals. Median follow-up time of all patients still alive at time of analysis was 83 months (range: 1-183 months). Within the follow-up period, 1319 patients (39%) experienced disease recurrence and 1200 patients (35%) died.
In studies involving patients from Munich, uPA and PAI-1 antigen have been prospectively measured by ELISA (uPA: Imubind #894. PAI-1: Imubind #821; both from American Diagnostica Inc., Greenwich, Conn.) since 1987 in all primary breast cancer patients treated at our institution. (Jänicke et al., 1994, Cancer Res. 54: 2527-2530). The antigen levels in detergent extracts of breast cancer tissue are expressed as ng of analyte per mg of tissue protein. In the study involving Rotterdam patients, uPA and PAI-1 antigen were measured by ELISA, employing the same antibodies as above, in cytosol preparations of the primary tumor as described by Foekens et al., 2000, Cancer Res., 60:636-643.
Due to differences in measurement techniques between the Munich and Rotterdam data sets, data re-coding was required. For the laboratory measurements of uPA, PAI-1, Estrogen receptor, and progesterone receptor, fractional ranks were computed with respect to each distribution. Fractional ranks also keep the variables on a convenient scale from zero to one, thus facilitating comparison of the […] coefficients of different factors. In particular, ranked estrogen receptor and progesterone receptor measurements were included as continuous variables in the statistical models, even though biochemical and immunohistochemical assays were used. […]

For `CC/C(=C(\c1ccccc1)c1ccc(OCCN(C)C)cc1)c1ccccc1` [Adjuvant endocrine therapy, tamoxifen], the “Disease-free survival (DFS) multivariate Relative risk (95% Confidence interval)” value [1] was 0.5 (0.3-0.7), the “HR (DFS) of therapy, separate Cox model” value ([2]; 0-3 affected lymph nodes, high-uPA/PAI-1 subgroup n=1174) was 0.51 (0.33-0.78) and the “95% CI for the HR (DFS) of therapy, separate Cox model” value ([2]; 0-3 affected lymph nodes, low-uPA/PAI-1 group n=1418, not significant) was 0.59-1.44. For the same molecule, the “HR (DFS) of therapy, separate Cox regression (2-stage model)” value ([2]; 4 or more affected nodes, low-uPA/PAI-1 subgroup) was 0.62 (95% CI, 0.43-0.90), the “HR (DFS) of therapy, separate Cox regression model” value ([2]; 4 or more nodes, high uPA/PAI-1) was 0.68 (95% CI, 0.49-0.95) and the “Hazard ratio (95% Confidence interval), multivariate Cox model (DFS), main effect” value (“Hazard ratio (95% Confidence interval)” below) ([2]; all patients n = 3,376) was 0.68 (0.56-0.82). The “Hazard ratio (95% Confidence interval)” value ([2]; all patients n = 3,376, listed as HT) was 0.68, the “HR (DFS) due to therapy, separate multivariate Cox model” value ([2]; all patients, high-uPA/PAI-1 subgroup) was 0.63 and the “HR (DFS) due to therapy, separate multivariate Cox model” value ([2]; all patients, low-uPA/PAI-1 subgroup) was 0.74. For the same molecule, the “95% CI for HR of interaction HT with uPA/PAI-1 (DFS)” value ([2]; all patients, no significant interaction) was 0.66-1.28, the “Hazard ratio (95% Confidence interval)” value ([2]; patients with 0-3 involved axillary nodes n = 2592) was 0.66 (0.48-0.90) and the “Hazard ratio (95% Confidence interval)” value ([2]; patients with 4 or more involved axillary nodes n = 784) was 0.68 (0.53-0.87).
